We go through one compound from PMC6934184, “Selective DNA-PKcs inhibition extends the therapeutic index of localized radiotherapy and chemotherapy” (The Journal of Clinical Investigation, 2019).

Structures are written as SMILES.

This assay concerns the target T1, MAP3K3 (MEKK3) (Homo sapiens, UniProt Q99759).
T1 construct: purchased Thermo Fisher Scientific (Life Technologies) SelectScreen
In words: SelectScreen LanthaScreen. The format is binding. Particulars: read-out: % displacement. The method, boiled down:
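SelectScreen broad panel; activity (Z'LYTE, Adapta) plus binding formats. ATP: Km app for CSF1R Z'LYTE; 10 for CAMK1 Adapta. Readout = % per kinase.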

T1 sequence (Q99759 whole entry): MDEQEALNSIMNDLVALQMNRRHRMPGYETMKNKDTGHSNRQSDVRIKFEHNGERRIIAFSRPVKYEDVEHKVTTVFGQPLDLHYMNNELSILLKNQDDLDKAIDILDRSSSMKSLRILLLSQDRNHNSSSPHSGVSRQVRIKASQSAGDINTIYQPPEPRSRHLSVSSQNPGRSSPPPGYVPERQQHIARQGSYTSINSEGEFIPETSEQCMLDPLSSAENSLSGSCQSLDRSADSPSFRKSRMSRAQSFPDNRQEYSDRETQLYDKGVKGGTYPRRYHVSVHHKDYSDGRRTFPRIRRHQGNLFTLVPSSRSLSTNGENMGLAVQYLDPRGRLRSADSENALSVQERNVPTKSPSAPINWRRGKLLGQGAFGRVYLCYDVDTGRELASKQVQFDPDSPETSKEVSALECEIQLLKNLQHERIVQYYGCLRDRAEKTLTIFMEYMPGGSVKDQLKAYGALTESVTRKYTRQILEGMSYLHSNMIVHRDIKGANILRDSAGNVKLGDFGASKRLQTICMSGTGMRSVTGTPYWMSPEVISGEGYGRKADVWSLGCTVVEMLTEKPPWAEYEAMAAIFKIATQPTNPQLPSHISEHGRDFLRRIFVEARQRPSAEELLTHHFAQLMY

In the case of `CN(C(=O)CN1CCOCC1)c1ccc2sc3c(-c4cccc5c(=O)cc(N6CC7CCC(C6)O7)oc45)cccc3c2c1` [NU5455], the inhibition at 1 µM was -1.1%.
